Assay results published in patent US4591604A, “Method of inhibiting the complement system by administering multisulfonated naphthalene ureas” (American Cyanamid Company, priority 1984, dated 1986).
Where a name gives a salt, the structure may show the parent alone.

What was measured:
activated human C1 = activated human C1 (Homo sapiens, UniProt P09871); assay: Test Code 026 (C1 inhibitor); assay type: biochemical; settings: serial twofold dilution assay; higher well number indicates higher activity
[1] = system: serum complement activity; assay: Guinea Pig Intraperitoneal Test (GPIP); assay type: in vivo; settings: 200 mg/kg i.p.; for In vivo Activity Guinea Pigs Intraperitoneal % Lowering, 30 minutes: blood sample 30 minutes after injection; for In vivo Activity Guinea Pigs Intraperitoneal % Lowering, 60 minutes: blood sample 60 minutes after injection; for In vivo Activity Guinea Pigs Intraperitoneal % Lowering, 120 minutes: blood sample 120 minutes after injection
Protocol: (§1) An active inhibitor protects C2 from C1 and C4; (ii) Test Code 036 (C-Shunt inhibitor)--In this test human erythrocytes rendered fragile are lysed in autologous serum via the shunt pathway activated by cobra venom factor in the presence of appropriate dilutions of the test compound. Inhibition of the shunt pathway results in failure of lysis; (iii) Cap 50 Test--Here, appropriate amounts of the test compound are added to a pool of guinea pig serum in vitro, after which the complement level is determined in undiluted serum by the serum capillary tube assay of U.S. Pat. No. 3,876,376. The concentration of compound inhibiting 50% is reported; and (iv) Guinea Pig Intraperitoneal Test (GPIP)--Guinea pigs weighing about 300 g are dosed intraperitoneally (i.p.) with 200 mg/kg of the test compound dissolved in saline and adjusted to pH 7-8. Approximately 0.4 ml blood samples, taken by orbital sinus puncture 30 minutes and one hour after injections, are collected directly into centrifuge tubes; 5 ml blood samples, taken by decapitation 2 hours after injection, are collected directly into diSPo® beakers. The samples were allowed to clot, centrifuged, and the resultant sera were assayed for complement activity using the capillary complement assay. Percent inhibition is calculated by comparison with simultaneous controls. The results of the GPIP appear in Table I together with results of Test Code 026, 036 and Cap 50.

[2] = system: shunt pathway activated by cobra venom factor (lysis of human erythrocytes in autologous serum); assay: Test Code 036 (C-Shunt inhibitor); assay type: cell-based; settings: serial twofold dilution assay; higher well number indicates higher activity
Protocol: as §1, with “The results of the GPIP appear in Table I together with results of Test Code 026, 036 and Cap 50.” left out

complement system = settings: reported in the literature; cited from earlier work
[3] = system: hereditary angioneurotic edema; settings: reported in the literature; cited from earlier work
human serum complement = settings: in vitro and in vivo, judged by reduction in total hemolytic complement activity; cited from earlier work

O=C(Nc1cc2c(O)cc(S(=O)(=O)[O-])cc2cc1S(=O)(=O)[O-])Nc1cc2c(O)cc(S(=O)(=O)[O-])cc2cc1S(=O)(=O)[O-].[Na+].[Na+].[Na+].[Na+] [3,3'-Ureylenebis(5-hydroxy-2,7-naphthalenedisulfonic acid), tetrasodium salt]
C1 026 Wells (activated human C1): +4 Wells | In vivo Activity Guinea Pigs Intraperitoneal % Lowering, 30 minutes [1]: 4% | In vivo Activity Guinea Pigs Intraperitoneal % Lowering, 60 minutes [1]: 1% | In vivo Activity Guinea Pigs Intraperitoneal % Lowering, 120 minutes [1]: 28%

O=C(Nc1cc(S(=O)(=O)[O-])c2cc([N+](=O)[O-])cc(S(=O)(=O)[O-])c2c1)Nc1cc(S(=O)(=O)[O-])c2cc([N+](=O)[O-])cc(S(=O)(=O)[O-])c2c1.[Na+].[Na+].[Na+].[Na+] [3,3'-Ureylenebis(7-nitro-1,5-naphthalenedisulfonic acid), tetrasodium salt]
C1 026 Wells (activated human C1): +3 Wells

O=C(Nc1cc2ccc(S(=O)(=O)[O-])cc2cc1S(=O)(=O)[O-])Nc1cc2ccc(S(=O)(=O)[O-])cc2cc1S(=O)(=O)[O-].[Na+].[Na+].[Na+].[Na+] [3,3'-Ureylenedi-2,7-naphthalenedisulfonic acid, tetrasodium salt]
C1 026 Wells (activated human C1): +3 Wells

O=C(Nc1cc(S(=O)(=O)O)cc2cc(S(=O)(=O)O)cc(OS(=O)(=O)c3ccccc3)c12)Nc1cc(S(=O)(=O)O)cc2cc(S(=O)(=O)O)cc(OS(=O)(=O)c3ccccc3)c12 [4,4'-Ureylenebis(5-hydroxy-2,7-naphthalenedisulfonic acid), tetrasodium salt dibenzenesulfonate]
C1 026 Wells (activated human C1): +3 Wells

O=C(Nc1ccc(S(=O)(=O)[O-])c2ccc(S(=O)(=O)[O-])cc12)Nc1ccc(S(=O)(=O)[O-])c2ccc(S(=O)(=O)[O-])cc12.[Na+].[Na+].[Na+].[Na+] [4,4'-Ureylenedi-1,6-naphthalenedisulfonic acid, tetrasodium salt]
C1 026 Wells (activated human C1): +3 Wells

O=C(Nc1ccc(S(=O)(=O)[O-])c2ccccc12)Nc1ccc(S(=O)(=O)[O-])c2ccccc12.[Na+].[Na+] [4,4'-Ureylenedi-1-naphthalenesulfonic acid, disodium salt]
C1 026 Wells (activated human C1): +2 Wells

O=C(Nc1cc(S(=O)(=O)[O-])cc2ccc(S(=O)(=O)[O-])cc12)Nc1cc(S(=O)(=O)[O-])cc2ccc(S(=O)(=O)[O-])cc12.[Na+].[Na+].[Na+].[Na+] [4,4'-Ureylenedi-2,6-naphthalenedisulfonic acid, tetrasodium salt]
C1 026 Wells (activated human C1): +2 Wells

O=C(Nc1cc(S(=O)(=O)[O-])cc2cc(S(=O)(=O)[O-])ccc12)Nc1cc(S(=O)(=O)[O-])cc2cc(S(=O)(=O)[O-])ccc12.[Na+].[Na+].[Na+].[Na+] [4,4'-Ureylenedi-2,7-naphthalenedisulfonic acid, tetrasodium salt]
C1 026 Wells (activated human C1): +3 Wells

O=C(Nc1ccc2c(S(=O)(=O)[O-])cc(S(=O)(=O)[O-])cc2c1)Nc1ccc2c(S(=O)(=O)[O-])cc(S(=O)(=O)[O-])cc2c1.[Na+].[Na+].[Na+].[Na+] [6,6'-Ureylenedi-1,3-naphthalenedisulfonic acid, tetrasodium salt]
C1 026 Wells (activated human C1): +3 Wells

O=C(Nc1ccc2c(O)cc(S(=O)(=O)O)cc2c1)Nc1ccc2c(O)cc(S(=O)(=O)O)cc2c1 [6,6'-ureylenebis(1-hydroxy-3-naphthalenesulfonic acid)]
C1 026 Wells (activated human C1): +1 Wells

O=C(Nc1cc(S(=O)(=O)[O-])c2cc(S(=O)(=O)[O-])cc(S(=O)(=O)[O-])c2c1)Nc1cc(S(=O)(=O)[O-])c2cc(S(=O)(=O)[O-])cc(S(=O)(=O)[O-])c2c1.[Na+].[Na+].[Na+].[Na+].[Na+].[Na+] [7,7'-Ureylenedi-1,3,5-naphthalenetrisulfonic acid, hexasodium salt]
C1 026 Wells (activated human C1): +6 Wells | C-Shunt Inhibition 036 Wells [2]: +1 Wells

O=C(Nc1ccc2cc(S(=O)(=O)O)cc(O)c2c1)Nc1ccc2cc(S(=O)(=O)O)cc(O)c2c1 [7,7'-ureylenebis(1-hydroxy-3-naphthalenesulfonic acid)]
C1 026 Wells (activated human C1): +2 Wells

O=S(=O)([O-])c1cc(NC(=S)Nc2cc(S(=O)(=O)[O-])cc3cc(S(=O)(=O)[O-])cc(S(=O)(=O)[O-])c23)c2c(S(=O)(=O)[O-])cc(S(=O)(=O)[O-])cc2c1.[Na+].[Na+].[Na+].[Na+].[Na+].[Na+] [8,8'-(2-Thioureylene)di-1,3,6-naphthalenetrisulfonic acid, hexasodium salt]
C1 026 Wells (activated human C1): +5 Wells | In vivo Activity Guinea Pigs Intraperitoneal % Lowering, 30 minutes [1]: 41% | In vivo Activity Guinea Pigs Intraperitoneal % Lowering, 60 minutes [1]: 20% | In vivo Activity Guinea Pigs Intraperitoneal % Lowering, 120 minutes [1]: 42%

O=C(Nc1ccc(S(=O)(=O)[O-])c2cc(S(=O)(=O)[O-])cc(S(=O)(=O)[O-])c12)Nc1ccc(S(=O)(=O)[O-])c2cc(S(=O)(=O)[O-])cc(S(=O)(=O)[O-])c12.[Na+].[Na+].[Na+].[Na+].[Na+].[Na+] [8,8'-Ureylenedi-1,3,5-naphthalenetrisulfonic acid, hexasodium salt]
In vivo Activity Guinea Pigs Intraperitoneal % Lowering, 30 minutes [1]: 92% | In vivo Activity Guinea Pigs Intraperitoneal % Lowering, 60 minutes [1]: 92% | In vivo Activity Guinea Pigs Intraperitoneal % Lowering, 120 minutes [1]: 94%

O=C(Nc1cc(S(=O)(=O)[O-])cc2cc(S(=O)(=O)[O-])cc(S(=O)(=O)[O-])c12)Nc1cc(S(=O)(=O)[O-])cc2cc(S(=O)(=O)[O-])cc(S(=O)(=O)[O-])c12.[Na+].[Na+].[Na+].[Na+].[Na+].[Na+] [8,8'-Ureylenedi-1,3,6-naphthalenetrisulfonic acid, hexasodium salt]
C1 026 Wells (activated human C1): +5 Wells | In vivo Activity Guinea Pigs Intraperitoneal % Lowering, 30 minutes [1]: 25% | In vivo Activity Guinea Pigs Intraperitoneal % Lowering, 60 minutes [1]: 61% | In vivo Activity Guinea Pigs Intraperitoneal % Lowering, 120 minutes [1]: 65%

O=C(Nc1cc(S(=O)(=O)[O-])cc2cccc(S(=O)(=O)[O-])c12)Nc1cc(S(=O)(=O)[O-])cc2cccc(S(=O)(=O)[O-])c12.[Na+].[Na+].[Na+].[Na+] [8,8'-Ureylenedi-1,6-naphthalenedisulfonic acid, tetrasodium salt]
C1 026 Wells (activated human C1): +3 Wells

Nc1ccc2cc(S(=O)(=O)[O-])cc(O)c2c1N=Nc1ccc(NC(=O)Nc2ccc(N=Nc3c(N)ccc4cc(S(=O)(=O)[O-])cc(O)c34)c(S(=O)(=O)[O-])c2)cc1S(=O)(=O)[O-].[Na+].[Na+].[Na+].[Na+] [chlorazol fast pink, 3,3'-ureylenebis[6-(2-amino-8-hydroxy-6-sulfo-1-naphthylazo)benzenesulfonic acid], tetrasodium salt]
anti-complementary effect (complement system): anti-complementary effect

NCCCCCC(=O)O [epsilon-aminocaproic acid]
success in the treatment of hereditary angioneurotic edema [3]: used with success

NC[C@H]1CC[C@H](C(=O)O)CC1 [tranexamic acid]
success in the treatment of hereditary angioneurotic edema [3]: used with success

heparin
anti-complementary effect (complement system): anti-complementary effect

pentosanpolysulfoester
anticomplementary activity on human serum (human serum complement): anticomplementary activity
